Laboratory results taken from patent publication US20230263822A1, “MODULATION OF FACTOR 11 EXPRESSION” (Ionis Pharmaceuticals, Inc., priority 2008, published 2023).

Test: Hematology assays in cynomolgus monkeys (Example 45)
Format: in vivo
Method: Groups, each consisting of two male and three female monkeys, were injected subcutaneously with ISIS 416838, ISIS 416850, ISIS 416858, ISIS 416864, or ISIS 417002 in escalating doses. Antisense oligonucleotide was administered to the monkeys at 5 mg/kg three times per a week for week 1; 5 mg/kg twice per week for weeks 2 and 3; 10 mg/kg three times per week for week 4; 10 mg/kg twice per week for weeks 5 and 6; 25 mg/kg three times per week for week 7; and 25 mg/kg twice per week for weeks 8, 9, 10, 11, and 12. One control group, consisting of two male and three female monkeys, was injected subcutaneously with PBS according to the same dosing regimen. An additional experimental group, consisting of two male and three female monkeys, was injected subcutaneously with ISIS 416850 in a chronic, lower dose regimen. Antisense oligonucleotide was administered to the monkeys at 5 mg/kg three times per week for week 1; 5 mg/kg twice per week for week 2 and 3; 10 mg/kg three times per week for week 4; and 10 mg/kg twice per week for weeks 5 to 12. Body weights were measured weekly. Blood samples were collected 14 days and 5 days before the start of treatment and subsequently once per week for Factor 11 protein activity analysis in plasma, fibrinogen measurement, PT and aPTT measurements, bleeding times, and measurement of various hematologic factors. On day 85, the monkeys were euthanized by exsanguination while under deep anesthesia, and organs harvested for further analysis.
The ISIS oligonucleotide, ISIS 416850, given with the chronic dose regimen is distinguished from the other oligonucleotides with an asterisk (*).

[1] = day 8, chronic dose regimen (*)
[2] = day 15, chronic dose regimen (*)
[3] = day 15, escalating dose regimen
[4] = day 22, chronic dose regimen (*)

In the case of “ISIS 416850: MOE gapmer, nucleobases 1275 to 1318 of SEQ ID NO: 1 (Table 8) (antisense TGCACAGTTTCTGGCAGGCC; MOE gapmer, wing and gap sizes not given here)”, the MCH (Day 64, escalating dose regimen) is reported as 22 pg, the MCH (Day 71, escalating dose regimen) is reported as 23 pg and the MCH (Day 78, escalating dose regimen) is reported as 23 pg. It also gave an MCH (Day 85, escalating dose regimen) of 22 pg, a basophils (day 8) of 0.2% and an eosinophils (day 8) of 1.1%. For the same substance, the lymphocytes (day 8) was 39%, the monocytes (day 8) was 1.8% and the neutrophils (day 8) was 57%. The platelet count (day 8) was 548000 µL⁻¹, the reticulocytes (day 8) was 1.2% and the MCH [1] was 23 pg. The MCHC [1] was 29 g/dL, the MCV [1] was 79 fL and the RBC count [1] was 5.5e+06 µL⁻¹. The WBC count [1] was 13000 µL⁻¹, the basophils [1] was 0.3% and the eosinophils [1] was 0.5%. The hematocrit [1] was 43%, the hemoglobin [1] was 12.5 g/dL and the lymphocytes [1] was 44%. The monocytes [1] was 1.8%, the neutrophils [1] was 53% and the platelet count [1] was 401000 µL⁻¹. The reticulocytes [1] was 1.1%, the MCH (day 8, escalating dose regimen) was 23 pg and the MCHC (day 8, escalating dose regimen) was 29 g/dL. The MCV (day 8, escalating dose regimen) was 80 fL, the RBC count (day 8, escalating dose regimen) was 5.4e+06 µL⁻¹ and the WBC count (day 8, escalating dose regimen) was 10000 µL⁻¹. The hematocrit (day 8, escalating dose regimen) was 43%, the hemoglobin (day 8, escalating dose regimen) was 12.4 g/dL and the basophils (day 15) was 0.2%. For the same substance, the eosinophils (day 15) was 1.0%, the lymphocytes (day 15) was 38% and the monocytes (day 15) was 2.0%. The neutrophils (day 15) was 58%, the platelet count (day 15) was 559000 µL⁻¹ and the reticulocytes (day 15) was 1.9%. The MCH [2] was 23 pg, the MCHC [2] was 30 g/dL and the MCV [2] was 75 fL. The RBC count [2] was 5.3e+06 µL⁻¹, the WBC count [2] was 16000 µL⁻¹ and the basophils [2] was 0.2%. For the same substance, the eosinophils [2] was 0.2%, the hematocrit [2] was 40% and the hemoglobin [2] was 12.2 g/dL. The lymphocytes [2] was 24%, the monocytes [2] was 1.5% and the neutrophils [2] was 73%. The platelet count [2] was 396000 µL⁻¹, the reticulocytes [2] was 1.0% and the MCH [3] was 23 pg. For the same substance, the MCHC [3] was 30 g/dL, the MCV [3] was 76 fL and the RBC count [3] was 5.3e+06 µL⁻¹. It also gave a WBC count [3] of 9000 µL⁻¹, a hematocrit [3] of 40% and a hemoglobin [3] of 12.1 g/dL. It also gave a basophils (day 22) of 0.2%, an eosinophils (day 22) of 0.7% and a lymphocytes (day 22) of 39%. For the same substance, the monocytes (day 22) was 2.4%, the neutrophils (day 22) was 57% and the platelet count (day 22) was 466000 µL⁻¹. It also gave a reticulocytes (day 22) of 1.9%, an MCH [4] of 23 pg and an MCHC [4] of 29 g/dL. It also gave an MCV [4] of 79 fL, an RBC count [4] of 5.1e+06 µL⁻¹ and a WBC count [4] of 15000 µL⁻¹. It also gave a basophils [4] of 0.1%, an eosinophils [4] of 0.5% and a hematocrit [4] of 40%. It also gave a hemoglobin [4] of 11.7 g/dL, a lymphocytes [4] of 33% and a monocytes [4] of 1.9%. The neutrophils [4] was 64% and the platelet count [4] was 347000 µL⁻¹.
